Reference: patent publication US8703790B2, “Bis [O-(14-benzoylaconine-8-yl)] esters” (priority 2008, dated 2014)

Tests used:
HCT-15 = experiment: Cell cycle arrest, propidium iodide flow cytometry, HCT-15; format: cell-based, human
Protocol: (§1) 10^6 Cells of A549, HCT-15 and MCF-7 cell lines have been seeded in Petri dishes with RPMI-1640 medium. 24 h later, SDD has been dissolved in water at a concentration of 20 μM and was directly added to the culture medium. Contact was maintained for 72 h. Then, cells have been detached by trypsinization, collected and rinsed by PBS and counted on hemocytometer. Cells were centrifuged for 5 min at 1500 rpm, then resuspended in a defined volume of PBS to obtain 2.5×10^6 cell/mL. 100 μL of cell suspension was digested to nuclei by trypsin for 10 min. Then, a solution containing trypsin inhibitor and RNAse was added to cell suspension and left for 10 min. Finally, cells were stained by propidium iodide and were analysed by flow-cytometry apparatus. Distribution of cells among the different phases of the cycle was determined by the procedure disclosed in: A detergent-trypsin method for preparation of nuclei for flow cytometric DNA analysis. Vindelov, L.; Christensen, I.; Nissen, N.; Cytometry (1983), 3, 323-327.
(§2) • G0G1: cell in the phase of GOG1 • G2M: cells in the phase of G2M • S: cells in the phase of DNA synthesis • Sub G1: apoptotic cells • SUP G2M: diploidic cells

MCF-7 = experiment: Cell cycle arrest, propidium iodide flow cytometry, MCF-7; format: cell-based, human
Protocol: as §1, §2

A549 = experiment: Cell cycle arrest, propidium iodide flow cytometry, A549; format: cell-based, human
Protocol: as §1, §2

[1] = biological target: T1, purified human recombinant Top 1 (Homo sapiens, UniProt P11387); experiment: Top1-catalysed cleavage assay; format: biochemical; conditions: 1, 10, 100 and 1000 μM
T1 sequence (P11387 1-765): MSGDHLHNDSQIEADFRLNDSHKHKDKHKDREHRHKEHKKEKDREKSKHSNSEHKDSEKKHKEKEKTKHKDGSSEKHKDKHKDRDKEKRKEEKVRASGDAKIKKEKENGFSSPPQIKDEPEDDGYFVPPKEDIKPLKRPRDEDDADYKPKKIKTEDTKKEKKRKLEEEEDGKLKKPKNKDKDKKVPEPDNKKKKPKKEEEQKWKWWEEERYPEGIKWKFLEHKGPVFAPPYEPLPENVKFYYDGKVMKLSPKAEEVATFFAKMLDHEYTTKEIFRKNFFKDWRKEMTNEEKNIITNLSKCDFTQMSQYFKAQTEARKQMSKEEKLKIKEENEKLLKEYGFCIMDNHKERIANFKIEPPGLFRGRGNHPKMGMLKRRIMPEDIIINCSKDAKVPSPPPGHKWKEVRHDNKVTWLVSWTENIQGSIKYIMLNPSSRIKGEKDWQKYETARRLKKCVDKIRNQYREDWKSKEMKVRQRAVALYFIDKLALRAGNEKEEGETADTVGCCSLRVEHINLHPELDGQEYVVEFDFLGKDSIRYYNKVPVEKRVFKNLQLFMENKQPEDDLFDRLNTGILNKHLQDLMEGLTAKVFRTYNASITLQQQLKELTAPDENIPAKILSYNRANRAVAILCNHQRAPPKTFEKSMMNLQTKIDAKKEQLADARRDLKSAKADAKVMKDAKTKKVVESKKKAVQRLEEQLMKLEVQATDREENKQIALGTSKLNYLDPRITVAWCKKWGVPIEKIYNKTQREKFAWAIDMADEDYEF
Protocol: The influence of SDD has been studied at various concentrations on Top 1 cleavage activity in comparison with Camptothecin.
The method consists in an incubation of 3′-labeled oligonucleotides with enzyme Top1, or Top 1+CPT or Top 1-SDD.
3′-end labelling of the scissile strand was performed as described previously in the publication: Conversion of topoisomerase I cleavage complexes on the leading strand of ribosomal DNA into 5′-phosphorylated DNA double-strand breaks by replication runoff. Pommier, Y.; Jenkins, J.; Kohlhagen, G.; and Leteurtre, F.; Mutat. Res. (1995), 337, 135-145.
Thus, 10 pmol of […] was incubated in labelling buffer (100 mM potassium cacodylate, pH 7.2, 2 mM CaCl2, 200 μM DTT) for 1 h at 37° C.
The reaction mixture was passed through a G-25 Sephadex spin column by centrifugation at 1000 g for 5 min to remove the excess of unincorporated nucleotide.
The 3′-labeled oligonucleotide was mixed with the same amount of unlabeled complementary strand in annealing buffer (i.e. 10 mM Tris-HCl, pH 7.8, […]) and annealed by heating the reaction mixture for 5 min at 95° C. followed by slow cool down at room temperature. […]
Imaging and quantification of the cleavage products were performed using a Typhoon Phosphorimager (Amersham Biosciences) as described in Inhibition of Topoisomerase I cleavage activity by thiol-reactive compounds. […]

[2] = HCT-15, SDD 20 μM, 72 h, percentage of total cell population
[3] = MCF-7, SDD 20 μM, 72 h, percentage of total cell population
[4] = A549, SDD 20 μM, 72 h, percentage of total cell population

CCN1C[C@]2(COC)[C@H](O)C[C@H](OC)[C@]34C1[C@H]([C@H](OC)[C@H]23)[C@]1(OC(=O)CCCCCCC(=O)O[C@]23[C@H]5[C@@H](OC(=O)c6ccccc6)[C@](O)(C[C@H]5[C@@]56C7[C@@H]2[C@H](OC)[C@@H]5[C@](COC)(CN7CC)[C@H](O)C[C@@H]6OC)[C@@H](OC)[C@@H]3O)[C@H]2[C@@H](OC(=O)c3ccccc3)[C@](O)(C[C@H]24)[C@@H](OC)[C@@H]1O [SDD, bis[O-(14-benzoylaconine-8-yl)]-suberate]
accumulation of cells in the G2M and S phases (HCT-15; HCT-15, 20 μM): significant accumulation
numbers of apoptotic cells (Sub G1) (HCT-15; HCT-15, 20 μM): significantly increased
increase of number of cells arrested at S phase as compared to control (HCT-15; HCT-15, SDD 20 μM): more than 100%
increase of number of cells in the G2M phase as compared to control (HCT-15; HCT-15, SDD 20 μM): 75%
ALL % (HCT-15; [2]): 100%
G0G1 % (HCT-15; [2]): 30.67%
G2M % (HCT-15; [2]): 15.72%
S % (HCT-15; [2]): 26.35%
SUP G2M % (diploidic cells) (HCT-15; [2]): 2.59%
SubG1 % (apoptotic cells) (HCT-15; [2]): 23.65%
Percentage of survival cells, G0G1 % (HCT-15; HCT-15, SDD, survival cells): 42.16%
Percentage of survival cells, G2M % (HCT-15; HCT-15, SDD, survival cells): 21.61%
Percentage of survival cells, S % (HCT-15; HCT-15, SDD, survival cells): 36.23%
accumulation of cells in the G2M and S phases (MCF-7; MCF-7, 20 μM): moderate accumulation
ALL % (MCF-7; [3]): 100%
G0G1 % (MCF-7; [3]): 58.73%
G2M % (MCF-7; [3]): 16.96%
S % (MCF-7; [3]): 21.44%
SUP G2M % (diploidic cells) (MCF-7; [3]): 1.72%
SubG1 % (apoptotic cells) (MCF-7; [3]): 2.05%
cell distribution in the cycle (MCF-7; MCF-7, SDD concentration 5 times higher than IC50): not altered
Percentage of survival cells, G0G1 % (MCF-7; MCF-7, SDD, survival cells): 60.46%
Percentage of survival cells, G2M % (MCF-7; MCF-7, SDD, survival cells): 17.46%
Percentage of survival cells, S % (MCF-7; MCF-7, SDD, survival cells): 22.08%
accumulation of cells in the G2M and S phases (A549; A549, 20 μM): significant accumulation
increase of number of cells arrested at S phase as compared to control (A549; A549, SDD 20 μM): more than 100%
increase of number of cells in the G2M phase as compared to control (A549; A549, SDD 20 μM): 85%
ALL % (A549; [4]): 100%
G0G1 % (A549; [4]): 53.04%
G2M % (A549; [4]): 16.42%
S % (A549; [4]): 25.49%
SUP G2M % (diploidic cells) (A549; [4]): 2.09%
SubG1 % (apoptotic cells) (A549; [4]): 3.34%
cell distribution in the cell cycle (A549; A549, SDD concentration close to IC50): altered
Percentage of survival cells, G0G1 % (A549; A549, SDD, survival cells): 55.86%
Percentage of survival cells, G2M % (A549; A549, SDD, survival cells): 17.29%
Percentage of survival cells, S % (A549; A549, SDD, survival cells): 26.84%
Top 1 inhibitory activity compared with camptothecin [1]: no Top 1 inhibitory activity
